System: human lung cancer cell line NCI-H1975
Assay: Drug sensitivity by viable count analysis (CNT %), NCI-H1975 cells cultured with exosomes (Example 3)
Format: cell-based
Details: Gefitinib 10 μM, 72 hours
Protocol: As a cell culture vessel, a Transwell cell culture insert (#3470 manufactured by Corning Incorporated) was used. The culture medium used was D-MEM (043-30085 manufactured by Wako Pure Chemical Corporation) containing 10 vol/vol % of bovine serum (EXO-FBS-50A-1 manufactured by System Biosciences, LLC), and 1 vol/vol % of penicillin-streptomycin (168-23191 manufactured by Wako Pure Chemical Corporation).
Drugs were each assessed three times using a final concentration of 10 μM of Gefitinib.
As exosomes derived from drug resistant cell line, ones recovered from the culture supernatant of human lung cancer cell line A549 (ATCC No.: CCL-185)) by ultracentrifugation were used. Assessments were conducted with respect to two conditions of 0 exosomes (no addition of the exosomes derived from the drug resistant cell line), and 1×10^9 exosomes.
In viable count analysis, drug sensitivity was assessed, as in Example 1, by using a trypan blue solution and by counting cells in the fluorescence mode of a cell counter (Countess II) manufactured by Life Technologies Inc. In the drug sensitivity assessment,CNT(cell viability)%=(viable count with addition of drug)/(viable count with addition of no drug)×100(%) was used as an assessment value.
As a reference, cells with an addition of 1×10^9 exosomes derived from the serum of a healthy person were also assessed.
(1) 2×10^4 NCI-H1975 cells were seeded in a Transwell cell culture insert.
(2) An appropriate amount of culture medium was added to the Transwell cell culture insert, followed by culturing in a CO2 incubator (37° C., 5% CO2) for 24 hours.
(1) An appropriate amount of culture medium was mixed with exosomes to prepare exosome medium solutions containing 0 exosomes (no addition of exosomes derived from a drug resistant cell line) and 1×10^9 exosomes.
(2) Each solution was added to the Transwell cell culture insert, followed by culturing in a CO2 incubator (37° C., 5% CO2) for 24 hours.
(1) An appropriate amount of the culture medium was mixed with a drug so as to have a final concentration of […]. […]

Compound: COc1cc2ncnc(Nc3ccc(F)c(Cl)c3)c2cc1OCCCN1CCOCC1 [Gefitinib]
- CNT (%) Average value (0 exosomes): 59.9%
- CNT (%) Average value (1 × 10^9 exosomes derived from A549): 89.2%
- CNT (%) Average value (1 × 10^9 exosomes derived from serum of healthy person): 57.7%

Reference: US11221326B2 (TOPPAN PRINTING CO., LTD., priority 2016, dated 2022)
